Ends that are not written are not given here. fluorescein = fluorescein bonded at the N-terminus
Columns and labels:
H460 tumor xenografts [1] = assay: histological test of in vivo homing (CD31 staining, TUNEL, organs); conditions: for peptide observed in tumor region stained by CD31: fluorescence microscope
Text: For a histological test, the above mouse undergoes anesthesia and then undergoes laparotomy. PBS and 4% paraformaldehyde (PFA) fixing agent is used for perfusion, and then tumor tissue and organs are removed. After cryosection of each tissue, the peptide of the present embodiment is observed by fluorescence microscope. Tumor vessels are stained by immunohistochemistry using an antibody (BD Pharmigen) to the mouse CD31 and alexa 568 labeled secondary antibody. Cell death in a tumor tissue is verified by TUNEL ([…] terminal deoxynucleotidyl transferase-mediated dUTP nick-end labeling) analyses according to the manufacturer's manual (Chemicon Int. USA).

H460 tumor xenografts [2] = assay: in vivo homing and in vivo/ex vivo visualization in tumor xenografts; design: species or system BALB/c male nude mouse; conditions: for in vivo fluorescein signal from tumor tissue: 50 μM through tail vein, after 2 hours; for ex vivo fluorescein signal from tumor tissue: tumor removed 2 hours after peptide injection
Description: All of animal experiments are carried out in accordance with guidelines of the kyoungpook national university. For tumor xenografts, H460 cells (1×10^7 cells) floated on RPMI medium containing 10% FBS are injected hypodermically at a right shoulder of a 6 week old BALB/c male nude mouse (SLC, Inc.). Then, tumor cells are allowed to grow about 0.5 to 1.0 cm for 3 weeks.
The mice having tumor cells are divided into a camptothecin treated group and untreated group, and then the camptothecin treated group is taken a dose of camptothecin (Sigma, 10 mg/kg) at 24 hours before peptide treatment. After that, fluorescein-labeled peptide (fluorescein-labeled CLSYYPSYC (SEQ ID NO: 1)) (50 μM) of the present embodiment or a control group peptide (50 μM) is injected through tail vein under isoflurane anesthesia. The peptide induced to the tumor cells are checked at every hour by the optical visualization system (ART Advanced Research Technologies Inc., Montreal, Canada) using […]/GFP filter after peptide injection. To each used mouse, baseline fluorescence of fluorescein is measured before peptide injection. The obtained image is treated and normalized by eXplore Optix optiView Software. After 2 hours of the peptide injection, the tumor is removed from the mouse and then ex vivo visualization of the tumor cell is carried out. The image is treated as above.

H460 cells = assay: fluorescence and confocal microscopy of peptide and annexin V marking of cells; assay type: cell-based, Human; conditions: for marking of apoptotic cells (fluorescent microscope) / marking of normal cells (fluorescent microscope): fluorescein peptide 10 μM, annexin V Alexa fluor 594; for marking of normal cells (fluorescent microscope): normal H460 cells
Description: H460 cells are cultured in a chamber slide (Nalgen Nunc Int.) and apoptosis is induced as described in embodiment 4-1. The apoptotic cells are washed with PBS and then the cells are cultured in tyrodes buffer in the presence of a peptide marked with 10 μM of fluorescein for 30 minutes at room temperature. After that, the cells are cultured with annexin V Alexa fluor 594 (Molecular Probes) for 15 minutes at room temperature. The cells are washed with PBS and then fixed with 4% of paraformaldehyde for 5 minutes. After that, the cells are counterstained by 4′,6-diamidino-2-phenylindole (DAPI) and then the cells are treated with a mounting solution to take a picture by fluorescent microscope (Zeiss, Oberkochen, Germany).
Also as shown in the FIG. 4C, the image is taken by a laser confocal microscope (LEICA).

H460 cell = assay: FACS analysis of labeled peptide binding to normal or apoptotic cells; assay type: cell-based, Human; conditions: fluorescein at N-end, 2.5 μM, 15 minutes; for binding of labeled peptide to apoptotic cells by FACS: apoptotic H460 cell
Description: Apoptotic cells are treated with a labeled peptide of the present embodiment and then FACS analyses are carried out to confirm that whether the peptide of the present embodiment is bound to phosphatidylserine of apoptotic cells or not.
The peptide used in the present embodiment has a form in which fluorescein is bonded at N-end. The peptide is synthesized according to the standard Fmoc method and separated by HPLC (Peptron Co.) before use.
The final concentration of the peptide of the present embodiment or the control group peptide (amino acid sequence: NSSVDK (SEQ ID NO: 8)) is 2.5 μM and the solution is dissolved in Hepes buffer (pH7.4, Hepes 10 mM, […] 138 mM, and with/without CaCl2). The solution is mixed with normal H460 cell or dead H460 cell (1×10^5 cells/mL) to become 0.5 mL of final volume and then cultured for 15 minutes at room temperature. The cells are washed with a binding buffer and then FACS analyses are immediately carried out (FACSScan, Becton Dickinson, San Jose, Calif.).

[3] = system: apoptotic cells (H460 cell); assay: competitive inhibition of phage binding to apoptotic cells (phage titer); assay type: cell-based, Human; conditions: for phage titer of selected phage bound to apoptotic cells after peptide treatment: peptide 50 μM, H460, versus un-treated group
Description: The specificity of the phage to phosphatidylserine bound to apoptotic cells is tested by competitive inhibition with annexin V.
A pre-cultured group, which is cultured for 30 minutes with annexin V (10 μM) before the apoptotic cells (H460 cell) are cultured with the phage, is used for the test. And a control group, which is not pre-cultured with annexin V, is used for the test. Phages are bound and eluted as described in the embodiment 4-1 and then phage titer is measured.
And, phage titer of a group treated with the synthesized peptide (50 μM) according to CLSYYPSYC (SEQ ID NO: 1) of amino acid sequence, which is shown in the selected phage clone, is measured. Phage titer of an un-treated group and a group treated with the peptide of the control group are measured. Phages are bound and eluted as described in the embodiment 4-1 and then phage titer is measured.

[4] = annexin V binding test of coated plate; conditions: his-tagged recombinant annexin V 20 μg/mL, 1 hour at room temperature
Description: For the preparation of a plate (or well) coated by phosphatidylserine or phosphatidylcholine, phosphatidylserine or phosphatidylcholine is dissolved in ethanol (300 μg/mL, 100 μL), and then the solution is placed and dried in Immulon 1B microtiter plate (Thermo, Milford, Mass., USA) for 6 hours in air. To prevent from non-specific binding, TBS (Tris-HCl 50 mM, pH7.4, NaCl 150 mM) containing 10 mg/mL of BSA (bovine serum albumin) is added to the solution and then blocking is performed for 1 hours at room temperature. The plates coated by phosphatidylserine or phosphatidylcholine are evaluated by annexin V binding test so as to use a coated plate.
To bind annexin V, his-tagged recombinant annexin V protein (20 μg/mL) is dissolved in TBS buffer containing 10 mg/mL of BSA and then the solution is placed ELISA plate coated by phosphatidylserine or phosphatidylcholine. After 1 hour of standing at room temperature, the plate is washed by TBS-T buffer for 3 times and the bound annexin V protein is reacted with mouse anti histidine IgG antibody (Santa Cruz Biotechnology) to which HRP is bound and then binding is tested by the reaction with TBM base.

[5] = phosphatidylserine binding of phage clone in the presence of annexin V (phage ELISA); conditions: annexin V protein 10 μM
Description: The phosphatidylserine binding specificity of the selected phage clone is tested by phosphatidylserine binding in the presence of annexin V.
In short, Immulon 1B microtiter plate is coated with phosphatidylcholine as described in the embodiment 1-2. Then, the plates are blocked with TBS medium containing 10 mg/mL of BSA for 1 hour at room temperature.
The selected phage clone is added to 100 μl of TBS buffer and then the mixture is added to the well coated with phosphatidylcholine. The well is gently shaken for 1 hour at room temperature (incubate). In a group in which annexin V is added, the above phage clone is cultured in the presence of annexin V protein (10 μM) and then 100 μl of TBS buffer is added to the phage clone. The mixture is added to the well coated with phosphatidylserine and then the well is gently shaken for 1 hour at room temperature. The well is strongly washed with TBS-T (TBS containing 0.05% Tween-20) buffer for 6 times and then phages bound to the well are detected by binding HRP (horseradish peroxidase)-bound anti-M13 antibody (New England Biolabs) (dilution, 1:4000 in TBS-T) for 1 hour at room temperature. After that, color reaction is carried out with HRP substrate suspension (TMB, Pierce). The color reaction is stopped by adding 2N H2SO4 and then absorbance is measure by the microplate reader (Bio-Rad, model 550) at 450 nm.

Row | Substance | peptide observed in tumor region stained by CD31 (H460 tumor xenografts [1]; cryosection) | in vivo fluorescein signal from tumor tissue (H460 tumor xenografts [2]) | ex vivo fluorescein signal from tumor tissue (H460 tumor xenografts [2]) | marking of apoptotic cells (fluorescent microscope) (H460 cells; apoptotic H460 cells) | binding of labeled peptide to apoptotic cells by FACS (H460 cell) | phage titer of selected phage bound to apoptotic cells after peptide treatment [3] | annexin V binding to coated plate [4] | marking of normal cells (fluorescent microscope) (H460 cells) | inhibition of phosphatidylserine binding of the selected phage clone [5] | phage titer of selected phage bound to apoptotic cells after annexin V pre-treatment ([3]; annexin V 10 μM, pre-cultured 30 minutes, H460) | location of peptide fluorescent signal relative to TUNEL staining in tumor (H460 tumor xenografts [1]; TUNEL analyses of tumor tissue) | peptide observed in liver and lung tissue (H460 tumor xenografts [1]; control group organs, cryosection) | fluorescence by the peptide in kidney (H460 tumor xenografts [1]; cryosection, excreted peptide in the uresis path) | binding site on apoptotic cells compared with annexin V (H460 cells; apoptotic H460 cells, photo composition / laser confocal microscope) | binding of labeled peptide to normal cells by FACS (H460 cell; normal H460 cell)
1 | NSSVDK [control group peptide, reference compound] | not observed | very weakly monitored or not monitored | very weakly monitored or not monitored | marking is occurred in annexin V case only | not certainly bound | no difference |  |  |  |  |  |  |  |  | 
2 | fluorescein-labeled CLSYYPSYC (fluorescein-CLSYYPSYC; cysteine pairing not given here) [… peptide with fluorescein bonded at N-end] |  | intensively detected |  |  |  |  |  |  |  |  |  |  |  |  | 
3 | annexin V: annexin V protein, phosphatidylserine-binding reference (his-tagged recombinant or Alexa fluor 594 labeled) |  |  |  | marking is occurred |  |  | certainly bound | marking is not occurred | inhibits | greatly decreased |  |  |  |  | 
4 | CLSYYPSYC [peptide of the present embodiment] | a large amount |  | intensively monitored | marking is occurred in both cases | certainly bound | greatly decreased |  | marking is not occurred |  |  | observed mainly in the TUNEL stained region | not observed | observed | bound to the same site | not certainly bound

— patent US8133971B2, “Polypeptide specifically bound to phosphatidylserine and the use thereof” (Kyungpook National University Industry Academic Cooperation …, priority 2008, dated 2012)
